In one assay the target is T1, BlaCor (Corynebacterium jeikeium, UniProt Q4JX89).
T1 construct: gene jk0411; 276-residue protein with N-terminal His6-TEV tag (pET-TEV), E. coli BL21(DE3), observed mass 32,825 Da, monomer
Kind of assay: electrospray mass spectrometry of covalent adduct. As to conditions: not hydrolysed. The class given is binding.

The target of a further assay is T2, Pbp2c (Corynebacterium jeikeium, UniProt Q4JX88).
T2 construct: residues 32-593 without N-terminal transmembrane segment; E. coli BL21(DE3); 62,975 Da; monomer
Kind of assay: electrospray mass spectrometry of covalent adduct. Type of assay: binding. As to conditions: 20 uM protein, 200 uM drug, 1 h, 20 °C, 100 mM MES pH 6.4.

T2 sequence (Q4JX88 entry or part of it): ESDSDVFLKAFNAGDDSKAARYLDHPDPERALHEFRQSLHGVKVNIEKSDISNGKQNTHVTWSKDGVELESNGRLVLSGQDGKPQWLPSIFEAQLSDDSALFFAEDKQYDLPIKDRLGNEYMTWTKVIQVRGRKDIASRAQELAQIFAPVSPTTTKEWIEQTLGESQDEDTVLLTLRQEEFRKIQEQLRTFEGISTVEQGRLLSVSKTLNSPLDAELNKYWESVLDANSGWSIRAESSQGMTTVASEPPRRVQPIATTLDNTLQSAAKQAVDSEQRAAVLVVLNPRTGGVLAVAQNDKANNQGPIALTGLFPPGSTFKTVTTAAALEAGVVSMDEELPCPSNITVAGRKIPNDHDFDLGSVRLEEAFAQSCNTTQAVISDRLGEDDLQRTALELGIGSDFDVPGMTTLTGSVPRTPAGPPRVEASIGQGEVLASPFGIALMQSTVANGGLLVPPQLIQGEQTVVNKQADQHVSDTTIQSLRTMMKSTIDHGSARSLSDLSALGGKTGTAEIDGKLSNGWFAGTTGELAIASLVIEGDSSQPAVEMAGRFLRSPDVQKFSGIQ
T1 sequence (Q4JX89 entry or part of it): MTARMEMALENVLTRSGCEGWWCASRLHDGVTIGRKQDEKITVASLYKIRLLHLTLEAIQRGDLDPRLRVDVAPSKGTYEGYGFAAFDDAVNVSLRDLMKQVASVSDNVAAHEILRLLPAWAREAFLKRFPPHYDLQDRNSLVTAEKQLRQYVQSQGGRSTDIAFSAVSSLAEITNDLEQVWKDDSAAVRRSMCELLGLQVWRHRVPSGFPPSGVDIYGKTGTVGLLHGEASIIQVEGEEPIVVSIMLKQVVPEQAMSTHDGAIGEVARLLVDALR

Consider `O=C(Cc1cccs1)N[C@@H]1C(=O)N2C(C(=O)O)=C(/C=C/c3ccc([N+](=O)[O-])cc3[N+](=O)[O-])CS[C@H]12` [nitrocefin], for which the “electrospray mass spectrometry of covalent adduct” value (“electrospray mass spectrometry” for short) on BlaCor is recorded as “the nitrocefin-BlaCor adduct was detected by mass spectrometry (data not shown)”.

Regarding `C[C@@H](O)[C@H]1C(=O)N2C(C(=O)O)=C(SCCN=CN)C[C@H]12` [imipenem], at Pbp2c, the “electrospray mass spectrometry” value is “Incubation of Pbp2c with imipenem allowed the detection of adducts”.

Turning to `C[C@@H](O)[C@H]1C(=O)N2C(C(=O)O)=C(S[C@@H]3CN[C@H](C(=O)N(C)C)C3)[C@H](C)[C@H]12` [meropenem], the “electrospray mass spectrometry” value on Pbp2c is “Adducts matching increments of the average mass of meropenem were also detected”.

Values taken from paper PMC11111852, “Exploration of the role of the penicillin binding protein 2c (Pbp2c) in inducible β-lactam resistance in Corynebacteriaceae” (Frontiers in Microbiology, 2024).
